pEC50: −log10 of the molar value. Where a SMILES comes first, the peptide text is derived from it. [ ]: non-standard residue; d: D form. αMeF = C[C@](N)(Cc1ccccc1)C(=O)O; Aib = CC(C)(N)C(=O)O
What was measured:
Format in all cases: cell-based
Conditions in all cases: n = 2
[1] = target: T1, hGLP-1R (Homo sapiens, UniProt P43220); assay: cAMP functional assay, cells expressing human GLP-1 receptor (primary assay)
T1 construct: expressed in transfected cells

[2] = target: T2, hGIP-R (Homo sapiens, UniProt P48546); assay: cAMP functional assay, cells expressing human GIP receptor (primary assay)
T2 construct: expressed in transfected cells
T2 sequence (P48546 22-466): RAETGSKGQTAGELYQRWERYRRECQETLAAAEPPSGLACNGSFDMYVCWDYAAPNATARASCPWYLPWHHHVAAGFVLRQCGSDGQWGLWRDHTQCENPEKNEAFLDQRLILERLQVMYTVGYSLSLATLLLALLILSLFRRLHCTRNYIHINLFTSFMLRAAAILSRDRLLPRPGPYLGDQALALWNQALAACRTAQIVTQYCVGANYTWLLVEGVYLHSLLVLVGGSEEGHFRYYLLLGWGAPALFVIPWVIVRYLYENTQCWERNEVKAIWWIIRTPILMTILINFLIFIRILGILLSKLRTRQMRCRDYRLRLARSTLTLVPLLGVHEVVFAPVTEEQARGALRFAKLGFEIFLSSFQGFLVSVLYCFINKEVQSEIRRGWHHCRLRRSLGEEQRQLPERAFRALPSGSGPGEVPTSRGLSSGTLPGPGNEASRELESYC

[3] = target: T3, hGluc-R (Homo sapiens, UniProt P47871); assay: cAMP functional assay, cells expressing human glucagon receptor (primary assay)
T3 construct: expressed in transfected cells
Protocol: The biological activities/receptor potencies of the synthetic GLP-1 peptides described herein are suitably tested for biological activity, e.g., stimulation of one or more cellular receptor responses. Stable cell lines expressing human, mouse, rat, or dog GLP-1 receptor (GLP-1R), glucagon receptor (GCGR) or glucose-dependent insulinotropic peptide (gastric inhibitory polypeptide) receptor (GIPR) are generated in HEK293 cells or CHO cells by standard methods.
cAMP assays were performed using “assay buffer”: Assay Buffer: 0.1% BSA (Sigma #A3059) in HBSS (Sigma #H8264) with 25 mM HEPES, pH 7.4 and containing 0.5 mM IBMX (Sigma #17018).
Low protein binding 384-well plates (Greiner #781280) are used to perform eleven 1 in 5 serial dilutions of test samples which are made in assay buffer. All sample dilutions are made in duplicate.
A frozen cryo-vial of cells expressing the receptor of interest is thawed rapidly in a water-bath, transferred to pre-warmed assay buffer and spun at 240× g for 5 minutes. Cells are re-suspended in assay buffer at a batch-dependent optimized concentration (e.g. hGCGR cells at 2×10^5 cells/ml, hGLP-1R and hGIPR cells at 1×10^5 cells /ml).
From the dilution plate, a 5 μL replica is stamped onto a black shallow-well u-bottom 384-well plate (Corning #3676). To this, 5 μL cell suspension is added and the plates incubated at room temperature for 30 minutes.
cAMP levels are measured using a commercially available cAMP dynamic 2 HTRF kit (Cisbio, Cat #62AM4PEJ), following the two step protocol as per manufacturer's recommendations. In brief; anti-cAMP cryptate (donor fluorophore) and cAMP-d2 (acceptor fluorophore) are made up separately by diluting each 1/20 in conjugate & lysis buffer provided in the kit. 5 μL anti-cAMP cryptate is added to all wells of the assay plate, and 5 μL cAMP-d2 is added to all wells except non-specific binding (NSB) wells, to which conjugate and lysis buffer are added. Plates are incubated at room temperature for one hour and then read on an Envision (Perkin Elmer) using excitation wavelength of 320 nm and emission wavelengths of 620 nm & 665 nm. EC50 values of the synthetic peptides determined in cAMP assays are then determined.

T1 sequence (P43220 24-463): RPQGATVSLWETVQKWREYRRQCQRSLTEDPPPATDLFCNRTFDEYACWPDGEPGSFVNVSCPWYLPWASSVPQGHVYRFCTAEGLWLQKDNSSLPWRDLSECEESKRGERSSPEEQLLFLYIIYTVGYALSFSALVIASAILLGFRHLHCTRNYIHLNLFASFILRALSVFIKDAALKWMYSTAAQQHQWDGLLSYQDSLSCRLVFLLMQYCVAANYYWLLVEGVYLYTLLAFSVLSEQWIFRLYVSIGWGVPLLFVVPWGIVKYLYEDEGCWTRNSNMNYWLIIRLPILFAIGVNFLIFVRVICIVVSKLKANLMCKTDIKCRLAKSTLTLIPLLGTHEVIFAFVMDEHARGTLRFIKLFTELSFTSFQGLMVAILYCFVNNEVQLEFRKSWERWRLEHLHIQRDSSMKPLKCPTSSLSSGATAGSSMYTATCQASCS
T3 sequence (P47871 26-477): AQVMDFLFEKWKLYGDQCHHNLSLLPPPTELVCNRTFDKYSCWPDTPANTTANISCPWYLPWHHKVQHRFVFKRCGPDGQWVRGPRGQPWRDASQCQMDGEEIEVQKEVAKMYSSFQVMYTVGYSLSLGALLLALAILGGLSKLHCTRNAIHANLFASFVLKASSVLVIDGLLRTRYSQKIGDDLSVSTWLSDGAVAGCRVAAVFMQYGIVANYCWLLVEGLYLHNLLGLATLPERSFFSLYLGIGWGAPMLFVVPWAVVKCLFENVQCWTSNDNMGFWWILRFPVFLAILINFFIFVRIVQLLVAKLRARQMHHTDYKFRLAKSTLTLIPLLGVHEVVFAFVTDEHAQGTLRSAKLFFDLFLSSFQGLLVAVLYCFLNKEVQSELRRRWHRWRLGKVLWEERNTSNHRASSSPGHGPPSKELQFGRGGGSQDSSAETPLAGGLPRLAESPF

pEC50 [1]	pEC50 [2]	pEC50 [3]	Compound
10.64	6.81	6.81	CC[C@H](C)[C@H](NC(=O)[C@H](Cc1ccccc1)NC(=O)[C@H](CCC(=O)O)NC(=O)[C@H](CCCCN)NC(=O)[C@H](C)NC(=O)[C@H](C)NC(=O)[C@H](CCC(N)=O)NC(=O)CNC(=O)[C@H](CCC(=O)O)NC(=O)[C@H](CC(C)C)NC(=O)[C@](C)(Cc1ccc(O)cc1)NC(=O)[C@H](CO)NC(=O)[C@H](CO)NC(=O)[C@@H](NC(=O)[C@H](CC(=O)O)NC(=O)[C@H](CO)NC(=O)[C@@H](NC(=O)[C@H](Cc1ccccc1)NC(=O)[C@@H](NC(=O)CNC(=O)[C@H](CCC(=O)O)NC(=O)C(C)(C)NC(=O)[C@@H](N)Cc1c[nH]cn1)[C@@H](C)O)[C@@H](C)O)C(C)C)C(=O)N[C@@H](C)C(=O)N[C@@H](Cc1c[nH]c2ccccc12)C(=O)N[C@@H](CC(C)C)C(=O)N[C@H](C(=O)N[C@@H](CCCCN)C(=O)NCC(=O)N[C@@H](CCCNC(=N)N)C(N)=O)C(C)C [SEQ ID NO: 8, H-(Aib)^2-EGT^5 FTSDV^10 SS-(α-MeY)^13-LE^15 GQAAK^20 EFIAW^25 LVKGR^30]
10.47	6.85	6.85	CC[C@H](C)[C@H](NC(=O)[C@H](Cc1ccccc1)NC(=O)[C@H](CCC(=O)O)NC(=O)[C@H](CCCCN)NC(=O)[C@H](C)NC(=O)[C@H](C)NC(=O)[C@H](CCC(N)=O)NC(=O)CNC(=O)[C@H](CCC(=O)O)NC(=O)[C@H](CC(C)C)NC(=O)[C@](C)(Cc1ccccc1)NC(=O)[C@H](CO)NC(=O)[C@H](CO)NC(=O)[C@@H](NC(=O)[C@H](CC(=O)O)NC(=O)[C@H](CO)NC(=O)[C@@H](NC(=O)[C@H](Cc1ccccc1)NC(=O)[C@@H](NC(=O)CNC(=O)[C@H](CCC(=O)O)NC(=O)C(C)(C)NC(=O)[C@@H](N)Cc1c[nH]cn1)[C@@H](C)O)[C@@H](C)O)C(C)C)C(=O)N[C@@H](C)C(=O)N[C@@H](Cc1c[nH]c2ccccc12)C(=O)N[C@@H](CC(C)C)C(=O)N[C@H](C(=O)N[C@@H](CCCCN)C(=O)NCC(=O)N[C@@H](CCCNC(=N)N)C(N)=O)C(C)C [SEQ ID NO: 9, H-(Aib)^2-EGT^5 FTSDV^10 SS-(α-MeF)^13-LE^15 GQAAK^20 EFIAW^25 LVKGR^30] (H-H[Aib]EGTFTSDVSS[αMeF]LEGQAAKEFIAWLVKGR-NH2)
10.36	6.88	6.88	CC[C@H](C)[C@H](NC(=O)[C@H](Cc1ccccc1)NC(=O)[C@H](CCC(=O)O)NC(=O)[C@H](CCCCN)NC(=O)[C@H](C)NC(=O)[C@H](C)NC(=O)[C@H](CCC(N)=O)NC(=O)CNC(=O)[C@H](CCC(=O)O)NC(=O)[C@H](CC(C)C)NC(=O)C(C)(C)NC(=O)[C@H](CO)NC(=O)[C@H](CO)NC(=O)[C@@H](NC(=O)[C@H](CC(=O)O)NC(=O)[C@H](CO)NC(=O)[C@@H](NC(=O)[C@H](Cc1ccccc1)NC(=O)[C@@H](NC(=O)CNC(=O)[C@H](CCC(=O)O)NC(=O)C(C)(C)NC(=O)[C@@H](N)Cc1c[nH]cn1)[C@@H](C)O)[C@@H](C)O)C(C)C)C(=O)N[C@@H](C)C(=O)N[C@@H](Cc1c[nH]c2ccccc12)C(=O)N[C@@H](CC(C)C)C(=O)N[C@H](C(=O)N[C@@H](CCCCN)C(=O)NCC(=O)N[C@@H](CCCNC(=N)N)C(N)=O)C(C)C [SEQ ID NO: 10, H-(Aib)^2-EGT^5 FTSDV^10 SS-(Aib)^13-LE^15 GQAAK^20 EFIAW^25 LVKGR^30] (H-H[Aib]EGTFTSDVSS[Aib]LEGQAAKEFIAWLVKGR-NH2)
10.26	6.82	6.82	CC[C@H](C)[C@H](NC(=O)[C@](C)(Cc1ccccc1)NC(=O)[C@H](CCC(=O)O)NC(=O)[C@H](CCCCN)NC(=O)[C@H](C)NC(=O)[C@H](C)NC(=O)[C@H](CCC(N)=O)NC(=O)CNC(=O)[C@H](CCC(=O)O)NC(=O)[C@H](CC(C)C)NC(=O)[C@H](Cc1ccc(O)cc1)NC(=O)[C@H](CO)NC(=O)[C@H](CO)NC(=O)[C@@H](NC(=O)[C@H](CC(=O)O)NC(=O)[C@H](CO)NC(=O)[C@@H](NC(=O)[C@H](Cc1ccccc1)NC(=O)[C@@H](NC(=O)CNC(=O)[C@H](CCC(=O)O)NC(=O)C(C)(C)NC(=O)[C@@H](N)Cc1c[nH]cn1)[C@@H](C)O)[C@@H](C)O)C(C)C)C(=O)N[C@@H](C)C(=O)N[C@@H](Cc1c[nH]c2ccccc12)C(=O)N[C@@H](CC(C)C)C(=O)N[C@H](C(=O)N[C@@H](CCCCN)C(=O)NCC(=O)N[C@@H](CCCNC(=N)N)C(N)=O)C(C)C [SEQ ID NO: 11, H-(Aib)^2-EGT^5 FTSDV^10 SSYLE^15 GQAAK^20 E-(α-MeF)^22IAW^25 LVKGR^30]

Continued, compound first:

Compound	pEC50 [1]	pEC50 [2]	pEC50 [3]
CC[C@H](C)[C@H](NC(=O)[C@H](Cc1ccccc1)NC(=O)[C@H](CCC(=O)O)NC(=O)[C@H](CCCCN)NC(=O)[C@H](C)NC(=O)[C@H](C)NC(=O)[C@H](CCC(N)=O)NC(=O)CNC(=O)[C@H](CCC(=O)O)NC(=O)[C@H](CC(C)C)NC(=O)[C@H](Cc1ccc(O)cc1)NC(=O)[C@H](CO)NC(=O)[C@H](CO)NC(=O)[C@@H](NC(=O)[C@H](CC(=O)O)NC(=O)[C@H](CO)NC(=O)[C@@H](NC(=O)C(C)(C)NC(=O)[C@@H](NC(=O)CNC(=O)[C@H](CCC(=O)O)NC(=O)C(C)(C)NC(=O)[C@@H](N)Cc1c[nH]cn1)[C@@H](C)O)[C@@H](C)O)C(C)C)C(=O)N[C@@H](C)C(=O)N[C@@H](Cc1c[nH]c2ccccc12)C(=O)N[C@@H](CC(C)C)C(=O)N[C@H](C(=O)N[C@@H](CCCCN)C(=O)NCC(=O)N[C@@H](CCCNC(=N)N)C(N)=O)C(C)C [SEQ ID NO: 7, H-(Aib)^2-EGT^5-(Aib)^6-TSDV^10 SSYLE^15 GQAAK^20 EFIAW^25 LVKGR^30]	10.14	6.82	6.82
CC[C@H](C)[C@H](NC(=O)C(C)(C)NC(=O)[C@H](CCC(=O)O)NC(=O)[C@H](CCCCN)NC(=O)[C@H](C)NC(=O)[C@H](C)NC(=O)[C@H](CCC(N)=O)NC(=O)CNC(=O)[C@H](CCC(=O)O)NC(=O)[C@H](CC(C)C)NC(=O)[C@H](Cc1ccc(O)cc1)NC(=O)[C@H](CO)NC(=O)[C@H](CO)NC(=O)[C@@H](NC(=O)[C@H](CC(=O)O)NC(=O)[C@H](CO)NC(=O)[C@@H](NC(=O)[C@H](Cc1ccccc1)NC(=O)[C@@H](NC(=O)CNC(=O)[C@H](CCC(=O)O)NC(=O)C(C)(C)NC(=O)[C@@H](N)Cc1c[nH]cn1)[C@@H](C)O)[C@@H](C)O)C(C)C)C(=O)N[C@@H](C)C(=O)N[C@@H](Cc1c[nH]c2ccccc12)C(=O)N[C@@H](CC(C)C)C(=O)N[C@H](C(=O)N[C@@H](CCCCN)C(=O)NCC(=O)N[C@@H](CCCNC(=N)N)C(N)=O)C(C)C [SEQ ID NO: 12, H-(Aib)^2-EGT^5 FTSDV^10 SSYLE^15 GQAAK^20 E-(Aib)^22IAW^25 LVKGR^30] (H-H[Aib]EGTFTSDVSSYLEGQAAKE[Aib]IAWLVKGR-NH2)	8.59	6.83	6.83
CC[C@H](C)[C@H](NC(=O)[C@H](Cc1ccccc1)NC(=O)[C@H](CCC(=O)O)NC(=O)[C@H](CCCCN)NC(=O)[C@H](C)NC(=O)[C@H](C)NC(=O)[C@H](CCC(N)=O)NC(=O)CNC(=O)[C@H](CCC(=O)O)NC(=O)[C@H](CC(C)C)NC(=O)[C@H](Cc1ccc(O)cc1)NC(=O)[C@H](CO)NC(=O)[C@H](CO)NC(=O)[C@@H](NC(=O)[C@H](CC(=O)O)NC(=O)[C@H](CO)NC(=O)[C@@H](NC(=O)[C@H](Cc1ccccc1)NC(=O)[C@@H](NC(=O)CNC(=O)[C@H](CCC(=O)O)NC(=O)C(C)(C)NC(=O)[C@@H](N)Cc1c[nH]cn1)[C@@H](C)O)[C@@H](C)O)C(C)C)C(=O)N[C@@H](C)C(=O)N[C@@](C)(Cc1c[nH]c2ccccc12)C(=O)N[C@@H](CC(C)C)C(=O)N[C@H](C(=O)N[C@@H](CCCCN)C(=O)NCC(=O)N[C@@H](CCCNC(=N)N)C(N)=O)C(C)C [SEQ ID NO: 13, H-(Aib)^2-EGT^5 FTSDV^10 SSYLE^15 GQAAK^20 EFIA-(α-MeW)^25 LVKGR^30]	10.59	6.79	6.79
